Reference: publication PMC6472066, “Characterisation of three novel α-L-arabinofuranosidases from a compost metagenome” (BMC Biotechnology, 2019)

Legend:
Experiment in all cases: pNP release at […] nm, Michaelis-Menten fit
[1] = test system: T1, AFase-D3; assay type: biochemical, metagenome: high temperature compost; details: at the enzyme's pH and temperature optima (pH 4.5, 25 °C), 1 min; abstract gives KM range up to 0.43 mM; read-out: KM in mM (Std. error)
T1 construct: full-length ORF, 494 residues, 56 kDa; C-terminal His tag (pET21a, NdeI-XhoI); E. coli BL21(DE3); homo-hexamer; primer-encoded N-terminus MNNVVINV

[2] = test system: T2, AFase-E3; assay type: biochemical, metagenome: high temperature compost; details: at the enzyme's pH and temperature optima (pH 4.0, 60 °C), 1 min; read-out: KM in mM (Std. error)
T2 construct: full-length ORF, 510 residues, 58 kDa; C-terminal His tag (pET21a, NdeI-HindIII); E. coli BL21(DE3); homo-hexamer

[3] = test system: T3, AFase-H4; assay type: biochemical, uncultured bacterium (compost metagenome); details: at the enzyme's pH and temperature optima (pH 5.0, 60 °C), 1 min; read-out: KM in mM (Std. error)
T3 construct: full-length ORF, 489 residues, 55 kDa, no signal peptide; C-terminal His tag (pET21a, NdeI-XhoI); E. coli BL21(DE3); homo-hexamer

Km [1]: 0.38 mM
Km [2]: 0.33 mM
Km [3]: 0.31 mM
Compound: O=[N+]([O-])c1ccc(O[C@@H]2O[C@@H](CO)[C@H](O)[C@H]2O)cc1 [pNP-α-L-arabinofuranoside]
